Data taken from article PMC12136037, “Type II kinase inhibitors that target Parkinson’s disease–associated LRRK2” (Science Advances, 2025).

Assays:
Assay in all cases: DSF 100 kinase selectivity screen;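 on dTm: compound tested at 20 µM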
Format in all cases: binding
[1] = target: T1, ~100 representative kinases (Homo sapiens, UniProt O43293); details: Protein DAPK3; average of three replicates
T1 construct: Recombinant protein kinase domains with a concentration of 2 μM
Summary of the method: (§1)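 Each kinase domain, at 2 μM, is mixed with 20 μM test compound and SYPRO Orange in Hepes (20 mM, pH 7.5) with 500 mM NaCl. Temperature is then raised at 3°C/min and fluorescence-monitored unfolding yields the melting temperature change, ΔTm in degrees Celsius.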

[2] = target: T2, ~100 representative kinases (Homo sapiens, UniProt P49761); details: Protein CLK3; average of three replicates
T2 construct: Recombinant protein kinase domains with a concentration of 2 μM
T2 sequence (P49761 whole entry, the tested form may be a part): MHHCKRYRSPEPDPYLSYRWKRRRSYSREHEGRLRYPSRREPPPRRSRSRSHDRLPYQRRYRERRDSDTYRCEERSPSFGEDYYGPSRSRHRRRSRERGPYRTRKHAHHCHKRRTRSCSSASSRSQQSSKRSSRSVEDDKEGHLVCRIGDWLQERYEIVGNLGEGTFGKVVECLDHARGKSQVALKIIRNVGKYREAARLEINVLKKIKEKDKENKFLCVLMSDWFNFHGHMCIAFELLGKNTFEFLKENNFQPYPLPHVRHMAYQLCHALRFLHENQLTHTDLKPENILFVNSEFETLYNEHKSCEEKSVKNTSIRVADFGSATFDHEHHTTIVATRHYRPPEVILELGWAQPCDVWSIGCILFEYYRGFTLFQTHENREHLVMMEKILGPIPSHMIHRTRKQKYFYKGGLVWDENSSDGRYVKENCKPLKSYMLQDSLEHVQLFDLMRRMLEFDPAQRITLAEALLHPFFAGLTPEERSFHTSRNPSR
Summary of the method: as §1

[3] = target: T3, ~100 representative kinases (Homo sapiens, UniProt O15075); details: Protein DCAMKL1; average of three replicates
T3 construct: Recombinant protein kinase domains with a concentration of 2 μM
Summary of the method: as §1

[4] = target: T4, ~100 representative kinases (Homo sapiens, UniProt P07332); details: protein FESA; average of three replicates
T4 construct: Recombinant protein kinase domains with a concentration of 2 μM
T4 sequence (P07332 whole entry, the tested form may be a part): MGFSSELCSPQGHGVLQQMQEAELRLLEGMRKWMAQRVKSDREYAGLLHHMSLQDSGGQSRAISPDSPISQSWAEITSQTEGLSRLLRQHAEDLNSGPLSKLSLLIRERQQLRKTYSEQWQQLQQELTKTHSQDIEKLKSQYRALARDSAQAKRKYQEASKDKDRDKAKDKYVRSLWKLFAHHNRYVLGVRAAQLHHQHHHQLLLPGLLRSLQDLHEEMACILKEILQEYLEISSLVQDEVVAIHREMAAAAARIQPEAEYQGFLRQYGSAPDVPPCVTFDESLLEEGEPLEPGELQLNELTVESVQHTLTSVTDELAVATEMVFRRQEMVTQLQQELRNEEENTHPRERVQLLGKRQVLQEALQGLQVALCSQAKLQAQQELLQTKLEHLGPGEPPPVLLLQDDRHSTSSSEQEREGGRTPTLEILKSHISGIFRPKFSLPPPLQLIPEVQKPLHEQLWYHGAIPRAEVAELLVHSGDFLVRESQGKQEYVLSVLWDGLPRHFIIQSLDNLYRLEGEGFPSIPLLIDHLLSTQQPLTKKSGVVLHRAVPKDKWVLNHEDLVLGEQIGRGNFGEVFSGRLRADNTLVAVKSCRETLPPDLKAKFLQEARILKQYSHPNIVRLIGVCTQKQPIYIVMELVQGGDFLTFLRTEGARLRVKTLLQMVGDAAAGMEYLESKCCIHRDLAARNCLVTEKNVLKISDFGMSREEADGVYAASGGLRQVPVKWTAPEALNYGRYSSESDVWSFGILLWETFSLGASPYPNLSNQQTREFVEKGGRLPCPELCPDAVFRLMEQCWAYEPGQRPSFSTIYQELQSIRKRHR
Summary of the method: as §1

[5] = target: T5, ~100 representative kinases (Homo sapiens, UniProt Q9Y6E0); details: protein MST3; average of three replicates
T5 construct: Recombinant protein kinase domains with a concentration of 2 μM
T5 sequence (Q9Y6E0 whole entry, the tested form may be a part): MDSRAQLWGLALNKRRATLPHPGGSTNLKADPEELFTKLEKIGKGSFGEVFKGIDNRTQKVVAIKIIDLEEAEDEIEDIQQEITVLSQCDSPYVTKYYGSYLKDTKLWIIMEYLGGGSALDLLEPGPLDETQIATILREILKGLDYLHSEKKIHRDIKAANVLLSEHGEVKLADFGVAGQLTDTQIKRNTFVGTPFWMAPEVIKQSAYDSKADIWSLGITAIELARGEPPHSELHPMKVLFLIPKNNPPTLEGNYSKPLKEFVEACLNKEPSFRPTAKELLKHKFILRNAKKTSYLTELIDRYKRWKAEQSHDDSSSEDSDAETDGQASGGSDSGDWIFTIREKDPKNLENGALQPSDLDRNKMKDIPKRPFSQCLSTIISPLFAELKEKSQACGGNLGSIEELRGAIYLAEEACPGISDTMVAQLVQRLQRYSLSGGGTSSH
Summary of the method: as §1

[6] = system: ~100 representative kinases; details: for dTm: Protein BRD, average of three replicates; for # >5K: number of proteins of the DSF panel with dTm >5K; for S (5 K) / share of screened kinases stabilized: DSF selectivity panel, thermal shift >5 K
Summary of the method: as §1

[7] = target: T6, ~100 representative kinases (Homo sapiens, UniProt Q9Y243); details: Protein AKT3; average of three replicates
T6 construct: Recombinant protein kinase domains with a concentration of 2 μM
T6 sequence (Q9Y243 whole entry, the tested form may be a part): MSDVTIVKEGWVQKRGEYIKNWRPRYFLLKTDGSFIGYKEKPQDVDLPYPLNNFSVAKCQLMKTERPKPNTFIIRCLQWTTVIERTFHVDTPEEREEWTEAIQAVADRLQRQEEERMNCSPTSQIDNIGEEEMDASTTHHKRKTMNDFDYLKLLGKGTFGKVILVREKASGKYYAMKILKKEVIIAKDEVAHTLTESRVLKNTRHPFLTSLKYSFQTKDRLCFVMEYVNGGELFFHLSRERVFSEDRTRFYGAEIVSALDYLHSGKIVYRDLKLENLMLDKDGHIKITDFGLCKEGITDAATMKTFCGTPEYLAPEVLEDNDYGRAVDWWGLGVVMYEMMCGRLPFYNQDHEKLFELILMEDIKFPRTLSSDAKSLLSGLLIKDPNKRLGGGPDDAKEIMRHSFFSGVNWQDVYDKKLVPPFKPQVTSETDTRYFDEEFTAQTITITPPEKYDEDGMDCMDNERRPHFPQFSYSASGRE
Summary of the method: as §1

[8] = target: T7, ~100 representative kinases (Homo sapiens, UniProt P49759); details: Protein CLK1; average of three replicates
T7 construct: Recombinant protein kinase domains with a concentration of 2 μM
T7 sequence (P49759 whole entry, the tested form may be a part): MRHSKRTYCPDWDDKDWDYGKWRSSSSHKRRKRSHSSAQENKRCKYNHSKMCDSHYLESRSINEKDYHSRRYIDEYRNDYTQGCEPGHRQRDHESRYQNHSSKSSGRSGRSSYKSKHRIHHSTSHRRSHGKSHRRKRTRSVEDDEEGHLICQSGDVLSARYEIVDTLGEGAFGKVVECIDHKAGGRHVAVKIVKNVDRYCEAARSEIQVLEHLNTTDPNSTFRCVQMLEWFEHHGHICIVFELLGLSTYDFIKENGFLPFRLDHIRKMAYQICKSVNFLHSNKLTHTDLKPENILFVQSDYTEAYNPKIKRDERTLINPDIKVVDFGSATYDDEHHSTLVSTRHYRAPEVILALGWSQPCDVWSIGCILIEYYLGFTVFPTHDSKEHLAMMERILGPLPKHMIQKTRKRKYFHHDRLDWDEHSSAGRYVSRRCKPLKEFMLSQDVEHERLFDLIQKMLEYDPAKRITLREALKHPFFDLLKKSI
Summary of the method: as §1

[9] = target: T8, ~100 representative kinases (Homo sapiens, UniProt P54764); details: Protein EPHA4; average of three replicates
T8 construct: Recombinant protein kinase domains with a concentration of 2 μM
T8 sequence (P54764 20-986): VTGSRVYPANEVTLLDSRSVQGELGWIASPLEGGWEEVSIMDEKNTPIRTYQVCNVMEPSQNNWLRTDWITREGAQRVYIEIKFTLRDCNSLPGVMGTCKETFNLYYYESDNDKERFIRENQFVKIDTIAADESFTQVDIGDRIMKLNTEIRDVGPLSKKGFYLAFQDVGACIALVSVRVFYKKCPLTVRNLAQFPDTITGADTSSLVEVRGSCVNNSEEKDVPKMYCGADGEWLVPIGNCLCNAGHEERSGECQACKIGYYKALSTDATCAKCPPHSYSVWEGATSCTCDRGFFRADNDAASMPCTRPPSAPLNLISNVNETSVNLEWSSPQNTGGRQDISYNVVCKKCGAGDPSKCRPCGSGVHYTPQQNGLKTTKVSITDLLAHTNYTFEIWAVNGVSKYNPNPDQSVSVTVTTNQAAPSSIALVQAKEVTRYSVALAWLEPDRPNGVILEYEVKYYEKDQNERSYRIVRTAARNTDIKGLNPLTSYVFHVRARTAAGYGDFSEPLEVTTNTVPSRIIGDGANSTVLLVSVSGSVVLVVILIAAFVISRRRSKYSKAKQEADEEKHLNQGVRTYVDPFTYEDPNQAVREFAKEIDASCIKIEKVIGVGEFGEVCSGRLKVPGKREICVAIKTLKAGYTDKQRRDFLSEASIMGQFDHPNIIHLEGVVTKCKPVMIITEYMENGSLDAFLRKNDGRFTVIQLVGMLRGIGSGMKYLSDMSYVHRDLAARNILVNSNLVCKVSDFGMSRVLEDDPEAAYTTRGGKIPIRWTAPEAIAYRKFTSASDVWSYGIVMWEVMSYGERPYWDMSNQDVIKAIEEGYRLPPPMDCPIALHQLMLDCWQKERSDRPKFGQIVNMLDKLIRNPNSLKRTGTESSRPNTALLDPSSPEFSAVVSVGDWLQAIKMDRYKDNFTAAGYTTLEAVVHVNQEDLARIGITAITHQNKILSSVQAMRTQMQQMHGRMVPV
Summary of the method: as §1

[10] = target: T9, ~100 representative kinases (Homo sapiens, UniProt Q96SB4); details: Protein SRPK1; DSF; average of three replicates
T9 construct: Recombinant protein kinase domains with a concentration of 2 μM
T9 sequence (Q96SB4 whole entry, the tested form may be a part): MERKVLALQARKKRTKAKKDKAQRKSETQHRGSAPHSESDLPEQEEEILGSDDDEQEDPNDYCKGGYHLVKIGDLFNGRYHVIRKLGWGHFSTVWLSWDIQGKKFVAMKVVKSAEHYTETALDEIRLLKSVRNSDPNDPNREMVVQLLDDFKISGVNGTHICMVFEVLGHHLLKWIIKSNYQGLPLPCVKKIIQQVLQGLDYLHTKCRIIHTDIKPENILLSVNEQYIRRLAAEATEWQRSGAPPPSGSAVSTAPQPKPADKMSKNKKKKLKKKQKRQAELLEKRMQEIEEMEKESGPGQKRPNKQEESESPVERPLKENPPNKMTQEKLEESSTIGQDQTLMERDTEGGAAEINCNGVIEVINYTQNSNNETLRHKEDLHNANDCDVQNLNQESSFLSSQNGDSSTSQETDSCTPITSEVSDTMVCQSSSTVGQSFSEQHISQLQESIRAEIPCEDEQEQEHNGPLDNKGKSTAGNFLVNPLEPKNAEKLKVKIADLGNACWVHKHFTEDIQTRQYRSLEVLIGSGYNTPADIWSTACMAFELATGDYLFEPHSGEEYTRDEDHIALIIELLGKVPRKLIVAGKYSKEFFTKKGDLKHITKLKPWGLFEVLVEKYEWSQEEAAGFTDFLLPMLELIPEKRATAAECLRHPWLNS
Summary of the method: as §1

[11] = target: T10, ~100 representative kinases (Homo sapiens, UniProt Q13188); details: Protein STK3; DSF; average of three replicates
T10 construct: Recombinant protein kinase domains with a concentration of 2 μM
T10 sequence (Q13188 1-491): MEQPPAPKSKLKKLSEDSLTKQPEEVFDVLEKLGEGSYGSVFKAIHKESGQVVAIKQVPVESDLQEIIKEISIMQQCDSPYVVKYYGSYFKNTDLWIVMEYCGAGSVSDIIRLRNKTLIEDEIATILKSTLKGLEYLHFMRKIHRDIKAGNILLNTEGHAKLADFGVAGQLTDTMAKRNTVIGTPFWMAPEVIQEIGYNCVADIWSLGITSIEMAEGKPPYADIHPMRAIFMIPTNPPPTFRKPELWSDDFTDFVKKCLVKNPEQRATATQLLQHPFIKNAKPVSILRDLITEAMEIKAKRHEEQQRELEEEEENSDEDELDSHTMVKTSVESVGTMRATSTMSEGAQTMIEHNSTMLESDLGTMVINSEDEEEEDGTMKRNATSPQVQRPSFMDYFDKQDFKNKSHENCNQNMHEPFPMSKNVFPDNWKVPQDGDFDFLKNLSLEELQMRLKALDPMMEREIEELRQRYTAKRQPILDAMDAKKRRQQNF
Summary of the method: as §1

[12] = target: T11, ~100 representative kinases (Homo sapiens, UniProt O95747); details: protein OSR1; average of three replicates
T11 construct: Recombinant protein kinase domains with a concentration of 2 μM
Summary of the method: as §1

[13] = target: T12, ~100 representative kinases (Homo sapiens, UniProt P28482); details: protein MAPK1; average of three replicates
T12 construct: Recombinant protein kinase domains with a concentration of 2 μM
T12 sequence (P28482 whole entry, the tested form may be a part): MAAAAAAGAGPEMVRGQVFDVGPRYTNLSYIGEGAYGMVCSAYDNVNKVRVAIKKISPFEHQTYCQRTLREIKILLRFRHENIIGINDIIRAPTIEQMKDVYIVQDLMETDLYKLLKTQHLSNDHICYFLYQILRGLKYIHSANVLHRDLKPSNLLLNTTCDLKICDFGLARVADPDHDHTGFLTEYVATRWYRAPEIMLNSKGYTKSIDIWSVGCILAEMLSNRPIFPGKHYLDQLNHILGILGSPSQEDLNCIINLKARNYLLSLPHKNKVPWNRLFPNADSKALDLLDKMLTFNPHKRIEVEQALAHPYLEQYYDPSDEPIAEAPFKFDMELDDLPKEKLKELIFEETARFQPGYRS
Summary of the method: as §1

[14] = target: T13, ~100 representative kinases (Homo sapiens, UniProt Q86V86); details: protein PIM3; average of three replicates
T13 construct: Recombinant protein kinase domains with a concentration of 2 μM
Summary of the method: as §1

[15] = target: T14, ~100 representative kinases (Homo sapiens, UniProt Q99986); details: Protein VRK1; DSF; average of three replicates
T14 construct: Recombinant protein kinase domains with a concentration of 2 μM
T14 sequence (Q99986 1-396): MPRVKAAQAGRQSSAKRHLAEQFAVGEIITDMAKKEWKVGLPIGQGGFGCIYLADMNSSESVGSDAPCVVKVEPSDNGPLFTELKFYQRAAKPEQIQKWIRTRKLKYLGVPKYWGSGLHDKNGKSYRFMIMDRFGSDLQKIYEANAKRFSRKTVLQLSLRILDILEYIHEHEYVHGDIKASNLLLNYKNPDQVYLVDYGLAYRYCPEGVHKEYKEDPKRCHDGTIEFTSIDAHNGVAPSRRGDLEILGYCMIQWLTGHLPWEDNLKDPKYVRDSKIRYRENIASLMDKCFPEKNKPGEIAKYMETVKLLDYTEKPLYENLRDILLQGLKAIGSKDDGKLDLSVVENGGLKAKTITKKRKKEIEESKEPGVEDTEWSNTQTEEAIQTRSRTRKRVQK
Summary of the method: as §1

[16] = target: T15, ~100 representative kinases (Homo sapiens, UniProt O94768); details: Protein STK17B; DSF; average of three replicates
T15 construct: Recombinant protein kinase domains with a concentration of 2 μM
T15 sequence (O94768 1-372): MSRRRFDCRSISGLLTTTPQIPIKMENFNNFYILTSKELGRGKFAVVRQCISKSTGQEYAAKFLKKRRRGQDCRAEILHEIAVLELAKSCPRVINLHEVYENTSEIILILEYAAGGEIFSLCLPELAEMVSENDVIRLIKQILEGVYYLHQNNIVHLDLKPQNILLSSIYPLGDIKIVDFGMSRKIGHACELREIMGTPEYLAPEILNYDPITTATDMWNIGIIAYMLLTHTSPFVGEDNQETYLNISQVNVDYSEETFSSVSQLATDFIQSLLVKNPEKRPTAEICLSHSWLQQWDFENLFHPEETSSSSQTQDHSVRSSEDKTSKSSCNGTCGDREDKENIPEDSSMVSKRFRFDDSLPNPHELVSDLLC
Summary of the method: as §1

[17] = target: T16, ~100 representative kinases (Homo sapiens, UniProt Q9UEW8); details: Protein STK39; DSF; average of three replicates
T16 construct: Recombinant protein kinase domains with a concentration of 2 μM
Summary of the method: as §1

[18] = number of kinases with thermal shift >5 K divided by total number of kinases screened
[19] = selectivity score: # >5K divided by # of proteins tested in the DSF panel

Compound	dTm [1]	dTm [2]	dTm [3]	dTm [4]	dTm [5]	dTm [6]	S(5K) [6, 18]	# >5K [6]	S(5K) [6, 19]	dTm [7]	dTm [8]	dTm [9]	dTm [10]	dTm [11]	dTm [12]	dTm [13]	dTm [14]	dTm [15]	dTm [16]	dTm [17]	further results
CC(C)(C)c1cccc(NC(=O)C2(C(=O)Nc3cccc(-c4c[nH]c5ncnc(N6CCOCC6)c45)c3)CC2)c1 [Compound 22]	3.52 K	4.17 K	3.75 K	7.02 K	0.95 K	1.52 K	0.22	23	0.221	0.15 K	7.58 K	2.71 K	9.79 K	9.61 K	4.04 K	0.30 K	-1.29 K	0.81 K	0.00 K	3.92 K	
O=C(Nc1cccc(-c2c[nH]c3ncnc(N4CCOCC4)c23)c1)C1(C(=O)Nc2cc(Br)c(F)cc2F)CC1 [Compound 25]	3.02 K	2.08 K	3.61 K	3.29 K	0.83 K	1.03 K	0.10	10	0.096	-0.48 K	4.99 K	1.97 K	4.56 K	4.96 K	0.13 K	-0.0637 K	-0.17 K	1.24 K	0.00 K	-0.03 K	
CC(C)(C)c1cc(NC(=O)Nc2cccc(-c3c[nH]c4ncnc(N5CCOCC5)c34)c2)n(-c2ccc3ncccc3c2)n1 [Compound 28]	14.79 K	16.34 K	3.53 K	9.54 K	9.37 K	-0.0106 K	0.49	49	0.490	0.49 K	19.59 K	8.59 K	16.05 K	10.40 K	4.85 K	0.09 K	4.96 K	1.63 K	9.72 K	7.55 K	S (5 K) / share of screened kinases stabilized [6]: 49%

Now from value to molecule, other results behind:

dTm [1]	dTm [2]	dTm [3]	dTm [4]	dTm [5]	dTm [6]	S(5K) [6, 18]	# >5K [6]	S(5K) [6, 19]	dTm [7]	dTm [8]	dTm [9]	dTm [10]	dTm [11]	dTm [12]	dTm [13]	dTm [14]	dTm [15]	dTm [16]	dTm [17]	Compound	further results
7.62 K	3.11 K	1.25 K	6.34 K	6.57 K	-1.43 K	0.28	28	0.280	0.58 K	10.73 K	0.24 K	11.40 K	8.44 K	1.79 K	-0.09 K	-0.0363 K	0.93 K	8.47 K	1.92 K	COc1cc(NC(=O)C2(C(=O)Nc3cccc(-c4c[nH]c5ncnc(N6CCOCC6)c45)c3)CC2)ccc1F [Compound 21]	
3.66 K	1.58 K	-0.73 K	4.70 K	5.25 K	-1.02 K	0.16	16	0.160	0.68 K	7.21 K	1.15 K	6.35 K	6.69 K	1.41 K	-0.16 K	-0.33 K	0.51 K	3.82 K	1.14 K	O=C(Nc1cccc(-c2c[nH]c3ncnc(N4CCOCC4)c23)c1)C1(C(=O)Nc2ccc(F)cc2F)CC1 [Compound 23]	S (5 K) / share of screened kinases stabilized [6]: 16%
2.09 K	0.69 K	-1.61 K	4.33 K	3.82 K	-0.87 K	0.12	12	0.120	0.50 K	5.49 K	0.68 K	3.79 K	6.63 K	0.69 K	-0.19 K	0.00331 K	0.44 K	2.37 K	0.71 K	Cc1cc(F)ccc1NC(=O)C1(C(=O)Nc2cccc(-c3c[nH]c4ncnc(N5CCOCC5)c34)c2)CC1 [Compound 24]	
3.21 K	3.24 K	3.55 K	3.48 K	3.50 K	1.43 K	0.14	15	0.144	-0.00683 K	6.34 K	2.01 K	4.06 K	5.86 K	-0.0329 K	-0.03 K	0.88 K	1.02 K	0.00 K	0.00 K	O=C(Nc1cccc(-c2c[nH]c3ncnc(N4CCOCC4)c23)c1)C1(C(=O)Nc2ccc(F)c(Br)c2F)CC1 [Compound 26]	S (5 K) / share of screened kinases stabilized [6]: 14%
4.42 K	2.41 K	4.07 K	3.58 K	3.03 K	1.43 K	0.09	9	0.087	0.53 K	7.78 K	1.53 K	-0.47 K	2.54 K	0.75 K	0.0359 K	-0.05 K	1.05 K	0.00 K	0.00 K	O=C(Nc1cc(F)cc(Br)c1)C1(C(=O)Nc2cccc(-c3c[nH]c4ncnc(N5CCOCC5)c34)c2)CC1 [Compound 27]	
